Assay results from ChEMBL document CHEMBL5678809, “Preclinical characterization of GLPG0634, a selective inhibitor of JAK1, for the treatment of inflammatory diseases” (J Immunol, 2013).
Activity calls are given as the source filed them. The rule behind the calls is not given here.

What was measured:
[1] = target: Dual specificity protein kinase CLK2 (Homo sapiens) (UniProt P49760); experiment: Inhibition of CLK2 (unknown origin) at 1 uM relative to control
[2] = target: Tyrosine-protein kinase CSK (Homo sapiens) (UniProt P41240); experiment: Inhibition of CSK (unknown origin) at 1 uM relative to control
[3] = target: Casein kinase I isoform gamma-2 (Homo sapiens, UniProt P78368); experiment: Inhibition of CSNK1G2 (unknown origin)
[4] = target: Serine/threonine-protein kinase DCLK2 (Homo sapiens) (UniProt Q8N568); experiment: Inhibition of DCAMKL2 (unknown origin) at 1 uM relative to control
[5] = target: Myotonin-protein kinase (Homo sapiens) (UniProt Q09013); experiment: Inhibition of DMPK (unknown origin) at 1 uM relative to control
[6] = target: Eukaryotic elongation factor 2 kinase (Homo sapiens) (UniProt O00418); experiment: Inhibition of eEF2K (unknown origin) at 1 uM relative to control
[7] = target: Epidermal growth factor receptor (Homo sapiens) (UniProt P00533); experiment: Inhibition of EGFR (unknown origin) at 1 uM relative to control
[8] = target: Rhodopsin kinase GRK7 (Homo sapiens) (UniProt Q8WTQ7); experiment: Inhibition of GRK7 (unknown origin) at 1 uM relative to control
[9] = target: Serine/threonine-protein kinase ICK (Homo sapiens, UniProt Q9UPZ9); experiment: Inhibition of ICK (unknown origin)
[10] = target: Insulin receptor-related protein (Homo sapiens) (UniProt P14616); experiment: Inhibition of IRR (unknown origin) at 1 uM relative to control
[11] = target: LIM domain kinase 1 (Homo sapiens) (UniProt P53667); experiment: Inhibition of LIMK1 (unknown origin) at 1 uM relative to control
[12] = target: Dual specificity mitogen-activated protein kinase kinase 1 (Homo sapiens) (UniProt Q02750); experiment: Inhibition of MEK1 (unknown origin) at 1 uM relative to control
[13] = target: Misshapen-like kinase 1 (Homo sapiens, UniProt Q8N4C8); experiment: Inhibition of MINK1 (unknown origin) at 1 uM relative to control
[14] = target: MAP kinase-interacting serine/threonine-protein kinase 2 (Homo sapiens, UniProt Q9HBH9); experiment: Inhibition of MNK2 (unknown origin)
[15] = target: SRSF protein kinase 3 (Homo sapiens) (UniProt Q9UPE1); experiment: Inhibition of MSSK1 (unknown origin) at 1 uM relative to control
[16] = target: Serine/threonine-protein kinase mTOR (Homo sapiens) (UniProt P42345); experiment: Inhibition of mTOR (unknown origin) at 1 uM relative to control
[17] = target: Serine/threonine-protein kinase Nek11 (Homo sapiens) (UniProt Q8NG66); experiment: Inhibition of NEK11 (unknown origin) at 1 uM relative to control
[18] = target: Serine/threonine-protein kinase PAK 4 (Homo sapiens) (UniProt O96013); experiment: Inhibition of PAK4 (unknown origin) at 1 uM relative to control
[19] = species: Homo sapiens; experiment: Inhibition of PKB3 (unknown origin) at 1 uM relative to control
[20] = target: Protein kinase C delta type (Homo sapiens) (UniProt Q05655); experiment: Inhibition of PKCd (unknown origin) at 1 uM relative to control
[21] = target: Serine/threonine-protein kinase Sgk1 (Homo sapiens) (UniProt O00141); experiment: Inhibition of SGK (unknown origin) at 1 uM relative to control
[22] = target: Serine/threonine-protein kinase Sgk2 (Homo sapiens) (UniProt Q9HBY8); experiment: Inhibition of SGK2 (unknown origin) at 1 uM relative to control
[23] = target: Serine/threonine-protein kinase SIK1 (Homo sapiens) (UniProt P57059); experiment: Inhibition of SIK (unknown origin) at 1 uM relative to control
[24] = target: Mitogen-activated protein kinase kinase kinase 7 (Homo sapiens, UniProt O43318); experiment: Inhibition of TAK1 (unknown origin)
[25] = target: Serine/threonine-protein kinase TAO1 (Homo sapiens) (UniProt Q7L7X3); experiment: Inhibition of TAO1 (unknown origin) at 1 uM relative to control
[26] = target: Serine/threonine-protein kinase VRK2 (Homo sapiens) (UniProt Q86Y07); experiment: Inhibition of VRK2 (unknown origin) at 1 uM relative to control
[27] = target: Vascular endothelial growth factor receptor 1 (Homo sapiens, UniProt P17948); experiment: Inhibition of Flt1 (unknown origin) at 1 uM relative to control
[28] = test system: RPMI-8226; experiment: Inhibition of human […] cell differentiation assessed as effect on IL-4 mRNA expression at 0.1 to 1 uM by RT-PCR analysis; type: functional, cell-based; conditions: dose 0.1-1 µM
[29] = Cmax in CD-1 mouse at 1 mg/kg, iv measured upto 8 hrs by LC-MS analysis; type: ADME, organism-based; conditions: in vivo
[30] = AUC (0 to 24 hrs) in CD-1 mouse at 1 mg/kg, iv measured upto 8 hrs by LC-MS analysis; type: ADME, organism-based; conditions: in vivo
[31] = Half life in CD-1 mouse at 1 mg/kg, iv measured upto 8 hrs by LC-MS analysis; type: ADME, organism-based; conditions: in vivo
[32] = Clearance in CD-1 mouse at 1 mg/kg, iv measured upto 8 hrs by LC-MS analysis; type: ADME, organism-based; conditions: in vivo
[33] = Oral bioavailability in CD-1 mouse at 5 mg/kg measured upto 24 hrs by LC-MS analysis; type: ADME, organism-based; conditions: in vivo
[34] = Cmax in Sprague-Dawley rat at 5 mg/kg, po measured upto 24 hrs by LC-MS analysis; type: ADME, organism-based; conditions: in vivo
[35] = Tmax in Sprague-Dawley rat at 5 mg/kg, po measured upto 24 hrs by LC-MS analysis; type: ADME, organism-based; conditions: in vivo
[36] = Half life in Sprague-Dawley rat at 5 mg/kg, po measured upto 24 hrs by LC-MS analysis; type: ADME, organism-based; conditions: in vivo
[37] = Oral bioavailability in Sprague-Dawley rat at 5 mg/kg measured upto 24 hrs by LC-MS analysis; type: ADME, organism-based; conditions: in vivo
[38] = test system: Rattus norvegicus; experiment: Antiarthritic activity against collagen-induced arthritis Dark Agouti rat model assessed as reduction in inflammatory infiltration at 1 mg/kg, po administered 3 times a week and measured on day 7; type: functional, organism-based; conditions: time 7.0 day
[39] = test system: Mus musculus; experiment: Antiarthritic activity against collagen-induced arthritis DBA/1J mouse model assessed as cartilage degradation by measuring lesion score in hind paw at 50 mg/kg, po administered twice daily for 14 days by histological analysis; type: functional, organism-based; conditions: time 14.0 day
[40] = test system: Mus musculus; experiment: Antiarthritic activity against collagen-induced arthritis DBA/1J mouse model assessed as MCP-5 level in serum at 50 mg/kg, po measured for 4 hrs by luminex analysis (reference value: 62.8 +/- 12.4 ng/ml); type: functional
[41] = test system: Mus musculus; experiment: Antiarthritic activity against collagen-induced arthritis DBA/1J mouse model assessed as reduction in MCP-1 level in serum at 50 mg/kg, po measured for 4 hrs by luminex analysis; type: functional, organism-based
[42] = test system: Mus musculus; experiment: Antiarthritic activity against collagen-induced arthritis DBA/1J mouse model assessed as reduction in MX1 level in whole blood at 50 mg/kg, po measured for 2 weeks by luminex analysis; type: functional, organism-based

LIM domain kinase 1 (Homo sapiens), sequence (P53667 whole entry, looked up, the tested form may be a part): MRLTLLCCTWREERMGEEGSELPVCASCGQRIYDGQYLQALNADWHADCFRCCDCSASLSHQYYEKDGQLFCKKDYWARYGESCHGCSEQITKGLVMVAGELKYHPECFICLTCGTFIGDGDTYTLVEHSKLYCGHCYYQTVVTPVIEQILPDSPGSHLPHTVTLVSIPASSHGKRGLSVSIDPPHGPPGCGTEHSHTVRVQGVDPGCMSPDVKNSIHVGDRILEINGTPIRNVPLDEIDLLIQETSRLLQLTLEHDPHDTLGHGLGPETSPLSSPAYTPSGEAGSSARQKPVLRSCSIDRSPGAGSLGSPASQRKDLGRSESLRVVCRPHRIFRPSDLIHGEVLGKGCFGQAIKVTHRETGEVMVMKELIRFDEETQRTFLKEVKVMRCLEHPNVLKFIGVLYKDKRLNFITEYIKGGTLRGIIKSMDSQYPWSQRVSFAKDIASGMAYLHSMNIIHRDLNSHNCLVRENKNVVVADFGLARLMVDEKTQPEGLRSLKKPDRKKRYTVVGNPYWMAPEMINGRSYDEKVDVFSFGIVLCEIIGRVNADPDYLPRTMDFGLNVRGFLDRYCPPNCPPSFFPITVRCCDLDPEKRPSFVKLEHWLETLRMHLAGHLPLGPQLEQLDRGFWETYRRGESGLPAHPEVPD
MAP kinase-interacting serine/threonine-protein kinase 2, sequence (Q9HBH9 whole entry): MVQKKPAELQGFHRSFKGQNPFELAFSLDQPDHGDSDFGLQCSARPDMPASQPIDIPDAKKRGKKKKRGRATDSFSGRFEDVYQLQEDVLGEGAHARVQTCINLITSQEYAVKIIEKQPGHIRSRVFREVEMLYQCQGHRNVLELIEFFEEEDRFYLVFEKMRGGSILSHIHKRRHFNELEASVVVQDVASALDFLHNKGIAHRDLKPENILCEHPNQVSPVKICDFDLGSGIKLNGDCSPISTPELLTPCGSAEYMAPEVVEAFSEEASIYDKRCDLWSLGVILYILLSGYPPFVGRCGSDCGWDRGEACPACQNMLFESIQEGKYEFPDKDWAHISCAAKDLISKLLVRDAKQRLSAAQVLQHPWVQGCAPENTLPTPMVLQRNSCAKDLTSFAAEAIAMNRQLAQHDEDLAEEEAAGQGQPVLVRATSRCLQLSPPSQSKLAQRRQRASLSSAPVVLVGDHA
Protein kinase C delta type (Homo sapiens), sequence (Q05655 whole entry, looked up): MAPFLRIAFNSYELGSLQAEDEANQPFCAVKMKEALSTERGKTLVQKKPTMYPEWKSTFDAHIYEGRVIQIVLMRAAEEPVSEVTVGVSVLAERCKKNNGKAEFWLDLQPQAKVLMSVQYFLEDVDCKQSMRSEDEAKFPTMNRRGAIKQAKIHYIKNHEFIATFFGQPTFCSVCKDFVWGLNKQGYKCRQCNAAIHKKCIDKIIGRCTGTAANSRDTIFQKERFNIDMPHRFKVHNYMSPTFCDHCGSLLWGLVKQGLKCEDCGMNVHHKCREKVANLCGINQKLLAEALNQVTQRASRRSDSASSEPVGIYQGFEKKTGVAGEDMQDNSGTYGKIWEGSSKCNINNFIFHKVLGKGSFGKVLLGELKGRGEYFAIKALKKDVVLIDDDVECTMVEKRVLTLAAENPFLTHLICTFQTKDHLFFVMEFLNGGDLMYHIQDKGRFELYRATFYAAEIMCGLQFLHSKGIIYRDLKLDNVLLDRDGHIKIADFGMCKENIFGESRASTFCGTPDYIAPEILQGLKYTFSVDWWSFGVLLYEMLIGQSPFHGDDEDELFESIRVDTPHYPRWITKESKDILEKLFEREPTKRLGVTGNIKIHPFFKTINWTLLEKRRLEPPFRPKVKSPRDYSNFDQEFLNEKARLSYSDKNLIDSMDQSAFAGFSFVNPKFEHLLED
Mitogen-activated protein kinase kinase kinase 7, sequence (O43318 whole entry): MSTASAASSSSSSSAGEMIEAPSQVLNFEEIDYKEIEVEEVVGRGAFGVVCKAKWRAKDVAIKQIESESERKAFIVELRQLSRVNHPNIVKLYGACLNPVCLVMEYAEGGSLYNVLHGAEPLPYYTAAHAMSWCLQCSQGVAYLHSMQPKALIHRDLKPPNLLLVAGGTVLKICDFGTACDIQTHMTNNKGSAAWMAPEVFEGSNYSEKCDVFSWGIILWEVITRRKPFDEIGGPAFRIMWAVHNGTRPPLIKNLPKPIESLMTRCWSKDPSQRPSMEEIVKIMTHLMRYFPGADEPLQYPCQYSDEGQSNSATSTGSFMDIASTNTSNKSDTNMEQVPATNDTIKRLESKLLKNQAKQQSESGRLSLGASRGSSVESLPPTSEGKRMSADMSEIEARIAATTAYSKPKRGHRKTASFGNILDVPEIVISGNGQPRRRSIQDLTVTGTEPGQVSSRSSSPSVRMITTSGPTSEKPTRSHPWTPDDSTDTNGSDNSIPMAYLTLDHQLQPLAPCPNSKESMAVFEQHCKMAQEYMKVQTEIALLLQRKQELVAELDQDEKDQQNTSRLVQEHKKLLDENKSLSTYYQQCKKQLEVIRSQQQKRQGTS
Myotonin-protein kinase (Homo sapiens), sequence (Q09013 whole entry): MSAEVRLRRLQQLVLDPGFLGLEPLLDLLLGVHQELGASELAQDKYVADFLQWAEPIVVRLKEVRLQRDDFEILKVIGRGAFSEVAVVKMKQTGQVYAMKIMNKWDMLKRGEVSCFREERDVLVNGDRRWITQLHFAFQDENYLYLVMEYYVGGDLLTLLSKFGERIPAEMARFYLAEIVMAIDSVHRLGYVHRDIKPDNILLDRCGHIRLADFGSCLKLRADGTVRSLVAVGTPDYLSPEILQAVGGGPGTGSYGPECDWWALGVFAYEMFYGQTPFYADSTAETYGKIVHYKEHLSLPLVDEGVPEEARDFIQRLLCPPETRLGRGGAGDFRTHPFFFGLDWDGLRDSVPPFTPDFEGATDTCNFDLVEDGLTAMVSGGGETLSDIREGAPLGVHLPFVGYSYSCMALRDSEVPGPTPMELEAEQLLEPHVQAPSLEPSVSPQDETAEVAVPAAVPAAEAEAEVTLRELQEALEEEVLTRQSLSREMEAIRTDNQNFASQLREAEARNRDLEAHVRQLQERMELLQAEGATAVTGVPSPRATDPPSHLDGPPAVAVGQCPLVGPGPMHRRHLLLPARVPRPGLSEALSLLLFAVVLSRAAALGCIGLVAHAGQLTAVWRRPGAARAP
Serine/threonine-protein kinase Sgk1 (Homo sapiens), sequence (O00141 whole entry): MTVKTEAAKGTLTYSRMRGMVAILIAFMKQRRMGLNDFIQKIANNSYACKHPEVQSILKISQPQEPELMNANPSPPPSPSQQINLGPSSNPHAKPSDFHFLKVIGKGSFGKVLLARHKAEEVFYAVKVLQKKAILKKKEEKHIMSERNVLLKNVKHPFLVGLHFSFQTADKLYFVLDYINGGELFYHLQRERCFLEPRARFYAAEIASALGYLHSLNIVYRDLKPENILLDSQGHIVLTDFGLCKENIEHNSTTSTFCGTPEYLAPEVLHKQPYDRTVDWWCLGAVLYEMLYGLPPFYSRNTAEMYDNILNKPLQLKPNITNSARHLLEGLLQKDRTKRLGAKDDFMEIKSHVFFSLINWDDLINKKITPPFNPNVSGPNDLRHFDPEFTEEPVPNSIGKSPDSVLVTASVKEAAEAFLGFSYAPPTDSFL
Serine/threonine-protein kinase SIK1 (Homo sapiens), sequence (P57059 whole entry): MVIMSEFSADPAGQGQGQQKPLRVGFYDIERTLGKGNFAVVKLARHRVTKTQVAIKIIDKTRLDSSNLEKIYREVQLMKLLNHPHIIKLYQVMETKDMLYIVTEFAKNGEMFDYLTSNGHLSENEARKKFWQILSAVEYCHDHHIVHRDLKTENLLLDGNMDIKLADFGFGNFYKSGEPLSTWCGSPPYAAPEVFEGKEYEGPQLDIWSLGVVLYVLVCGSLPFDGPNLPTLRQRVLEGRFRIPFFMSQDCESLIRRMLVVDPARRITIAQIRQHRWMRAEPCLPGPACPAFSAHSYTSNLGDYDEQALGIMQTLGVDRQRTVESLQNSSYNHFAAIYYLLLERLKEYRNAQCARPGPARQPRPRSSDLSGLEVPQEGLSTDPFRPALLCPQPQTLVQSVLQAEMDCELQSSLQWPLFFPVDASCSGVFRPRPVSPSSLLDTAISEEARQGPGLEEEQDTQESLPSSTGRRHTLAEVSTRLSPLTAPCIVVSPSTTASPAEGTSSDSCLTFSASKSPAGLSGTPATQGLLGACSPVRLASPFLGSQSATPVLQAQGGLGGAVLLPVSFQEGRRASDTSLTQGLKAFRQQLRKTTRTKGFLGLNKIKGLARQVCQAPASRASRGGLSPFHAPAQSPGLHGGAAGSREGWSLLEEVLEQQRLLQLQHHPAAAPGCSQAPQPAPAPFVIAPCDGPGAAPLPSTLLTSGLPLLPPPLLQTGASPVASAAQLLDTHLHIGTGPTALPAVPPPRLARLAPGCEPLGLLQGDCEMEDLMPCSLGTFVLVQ
Rhodopsin kinase GRK7 (Homo sapiens), sequence (Q8WTQ7 whole entry): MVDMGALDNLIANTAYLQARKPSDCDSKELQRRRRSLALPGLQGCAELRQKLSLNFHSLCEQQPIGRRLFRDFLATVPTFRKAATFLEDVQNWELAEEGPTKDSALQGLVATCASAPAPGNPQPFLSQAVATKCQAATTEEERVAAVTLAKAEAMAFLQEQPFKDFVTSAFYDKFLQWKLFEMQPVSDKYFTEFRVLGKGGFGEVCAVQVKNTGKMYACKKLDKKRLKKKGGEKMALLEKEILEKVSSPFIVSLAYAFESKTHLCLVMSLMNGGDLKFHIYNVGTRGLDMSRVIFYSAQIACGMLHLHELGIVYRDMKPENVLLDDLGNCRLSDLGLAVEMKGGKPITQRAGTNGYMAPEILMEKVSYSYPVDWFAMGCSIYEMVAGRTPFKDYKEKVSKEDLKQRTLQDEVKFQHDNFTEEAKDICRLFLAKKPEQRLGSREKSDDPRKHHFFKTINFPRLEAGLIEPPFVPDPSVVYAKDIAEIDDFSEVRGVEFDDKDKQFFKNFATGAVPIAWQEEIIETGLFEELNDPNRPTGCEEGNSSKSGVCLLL

O=C(Nc1nc2cccc(-c3ccc(CN4CCS(=O)(=O)CC4)cc3)n2n1)C1CC1 [FILGOTINIB]
inhibition [1]: 10% | inhibition [2]: 3% | IC50 [3]: > 10 µM | inhibition [4]: 12% | inhibition [5]: -4% | inhibition [6]: -4% | inhibition [7]: -5% | inhibition [8]: -8% | IC50 [9]: > 10 µM | inhibition [10]: -5% | inhibition [11]: -1% | inhibition [12]: -3% | inhibition [13]: -2% | IC50 [14]: > 10 µM | inhibition [15]: 2% | inhibition [16]: -7% | inhibition [17]: -2% | inhibition [18]: 0% | inhibition [19]: -6% | inhibition [20]: -10% | inhibition [21]: 7% | inhibition [22]: -4% | inhibition [23]: 1% | IC50 [24]: > 10 µM | inhibition [25]: -4% | inhibition [26]: 2% | inhibition [27]: 37% | inhibition [28]: Active | Cmax [29]: 637 ng/mL | AUC [30]: 347 ng·h/mL | half-life [31]: 2.5 h | clearance [32]: 48.3 mL/min/kg | bioavailability [33]: ~100% | Cmax [34]: 310 ng/mL | Tmax [35]: 2.2 h | half-life [36]: 3.9 h | bioavailability [37]: 45% | Activity [38]: Active | Activity [39]: Active | Activity [40]: 36.4 ng/mL | Activity [41]: Active | Activity [42]: inactive
